Experimental data taken from patent US11926610B1, “9-(2-hydroxypyridin-3-yl)10-(2-hydroxyethyl)-3,6-diphenyl-3,4,6,7,9,10-hexahydroacridine1,8(2H,5H)-dione as an antimicrobial compound” (KING FAISAL UNIVERSITY, priority 2023, dated 2024).

Columns and labels:
Type in all cases: cell-based
Details in all cases: after 10, 20, 40 and 60 minutes at all dilutions 1:100, 1:200, 1:400, 1:800
Staphylococcus aureus = assay: Antimicrobial screening by agar dilution, Staphylococcus aureus
Method: (§1) The antibacterial properties of the synthesized compound 9-(2-hydroxypyridin-3-yl)-10-(2-hydroxyethyl)-3,6-diphenyl-3,4,6,7,9,10-hexahydroacridine1,8(2H,5H)-dione were studied by the method of agar dilution. Test solutions of each compound was prepared in concentration of 1% using dimethylformamide as a solvent then they are diluted in physiological solution to obtain the final experimental dilutions 1:100, 1:200, 1:400, 1:800. The effect of these substances are compared with furacillin in a controllable study. The testing microbes used were gram positive bacteria Staphylococcus aureus, gram negative bacteria Pseudomonas aeruginosa and Escherichia coli and Candida albicans fungus. The experiments used for this survey were meat-pentonlu agar (EPA) for cultivation of bacteria and Saburo environment for the fungus. Each experiment used 1 mL of test solution on each plate […]. Two drops of emulsified with microbes feel were added. All experimental samples were taken from the agar after 10, 20, 40, 60 minutes in the environment on the basis of Patrk planted. The bacteria were cultivated at a temperature of 37° C. for 1 day and the mushroom was kept in a thermostat for 2 hours at a temperature of 28° C. Then results were checked.

Escherichia coli = assay: Antimicrobial screening by agar dilution, Escherichia coli
Method: as §1

Pseudomonas aeruginosa = assay: Antimicrobial screening by agar dilution, Pseudomonas aeruginosa
Method: as §1

Candida albicans = assay: Antimicrobial screening by agar dilution, Candida albicans
Method: as §1

Measured: inhibition activity (in words)

O=C1CC(c2ccccc2)CC2=C1C(c1cccnc1O)C1=C(CC(c3ccccc3)CC1=O)N2CCO (stereo not shown) [9-(2-hydroxypyridin-3-yl)-10-(2-hydroxyethyl)-3,6-diphenyl-3,4,6,7,9,10-hexahydroacridine1,8(2H,5H)-dione]
highest inhibition activity: Staphylococcus aureus | Escherichia coli | Pseudomonas aeruginosa | Candida albicans
